Laboratory results as given in patent US8602215B2, “Methods for reducing the risk of an adverse dronedarone/beta-blockers interaction in a patient suffering from atrial fibrillation” (Sanofi, priority 2010, dated 2013).
Where a name gives a salt, the structure may show the parent alone. Read-outs that look alike come from different tables or passages of the source.

What was measured:
[1] = human, in vivo
[2] = system: patients with atrial fibrillation or atrial flutter; assay: ATHENA clinical study, patients with beta-blockers baseline medication; format: in vivo
Description: The relative risk (RR) was estimated using Cox's […] regression model.
The relative risk (RR) is the ratio of the rates of occurrence of a hospitalization or of a death among the patients on dronedarone, relative to the patients on placebo.
The percentage reduction x of a given event (hospitalization, death, cardiovascular death, etc.) is calculated in the following way: x=1−relative risk. Results Relating to the Prevention of Cardiovascular Hospitalization or Death

[3] = system: healthy male caucasian subjects; assay: Metoprolol/dronedarone interaction study: pharmacodynamics, myocardial contractility (Example 1); format: in vivo, human (healthy male caucasian subjects); conditions: dronedarone 800 mg BID added on top of metoprolol 200 mg OD; p=0.0002
Description: (§1) All treatments were administered in fed conditions.
The pharmacodynamic analyses were based on the change in Day 5 and Day 13 measurements, using a one-way analysis of variance (ANOVA) model with term for dose, for both primary and secondary endpoints; estimates and 95% confidence intervals (CI) of the difference in mean CHGDay13-5 between dronedarone dose groups and the placebo group were derived within the ANOVA framework. As the sample size calculation was based on the comparison of the highest dronedarone dose versus placebo, pairwise comparison were performed without adjustment of the overall treatment first type error rate. Safety evaluation was based upon a review of individual values and descriptive statistics (listings, summary tables, graphics).

clinical = conditions: male, human, in vivo
CYP2D6 = molecular target: T1, CYP2D6 (Homo sapiens, UniProt P10635); assay: CYP2D6 inhibition in vivo, from metoprolol interaction (Example 1); parameters: species or system human (CYP2D6 extensive metabolizer subjects); conditions: dronedarone 400 mg BID, metoprolol 200 mg OD as substrate
T1 construct: endogenous in cells; host or cells: healthy human volunteers in vivo (endogenous enzyme, CYP2D6 extensive metabolizers)
Description: as §1
The interaction ratio is lower than the existing 3-(Cmax) to 6-fold (AUC) difference in metoprolol exposure between poor and extensive CYP2D6 metabolizers.

healthy male subjects = assay: Propranolol/dronedarone interaction study: pharmacodynamics, electrocardiogram and vital signs at rest and during sub-maximal exercise (Example 2); format: in vivo, human (healthy male subjects)
Description: as §1
Pharmacodynamics: Resting vital signs were summarized by the synthetic parameter AUC0-8 and analyzed for “treatment effects and chronological (“time”) effects using repeated measures analysis of variance. Exercise vital signs were analyzed in a similar manner; the electrocardiogram exercise data were not formally analyzed and presented using descriptive statistics.

[4] = Metoprolol/dronedarone interaction study: plasma pharmacokinetics of metoprolol (Example 1); conditions: dronedarone 400 mg BID + metoprolol 200 mg OD; CYP2D6 extensive metabolizer subjects
[5] = existing difference, quoted for comparison; cited from earlier work
[6] = human, in vivo; remark: listed apart in the source
[7] = 1628 patients with beta-blockers baseline medication, placebo 673 of 1641
[8] = versus placebo, Cox model, beta-blockers baseline medication
[9] = versus placebo, beta-blockers baseline medication

T1 sequence (P10635 whole entry): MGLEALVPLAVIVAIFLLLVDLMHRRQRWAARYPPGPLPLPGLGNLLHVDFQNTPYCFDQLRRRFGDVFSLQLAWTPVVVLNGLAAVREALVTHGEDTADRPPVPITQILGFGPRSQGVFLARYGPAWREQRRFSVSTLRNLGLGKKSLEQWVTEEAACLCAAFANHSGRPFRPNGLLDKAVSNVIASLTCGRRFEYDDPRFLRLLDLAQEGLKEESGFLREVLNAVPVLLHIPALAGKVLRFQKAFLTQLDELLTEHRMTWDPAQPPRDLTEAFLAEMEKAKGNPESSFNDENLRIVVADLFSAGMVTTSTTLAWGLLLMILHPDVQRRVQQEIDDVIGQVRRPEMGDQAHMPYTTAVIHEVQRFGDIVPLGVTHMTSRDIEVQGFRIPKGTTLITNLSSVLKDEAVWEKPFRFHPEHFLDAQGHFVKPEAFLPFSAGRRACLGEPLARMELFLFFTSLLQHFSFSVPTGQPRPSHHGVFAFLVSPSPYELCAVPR

CCCCNCCCOc1ccc(C(=O)c2c(CCCC)oc3ccc(NS(C)(=O)=O)cc23)cc1 [SR35021]
AUC0-24 [1]: 768.6 (278.4) ng · h/ml | Cmax [1]: 85.9 (28.8) ng/ml | tmax [1]: 5.13 (0.72) h

CCCCc1oc2ccc(NS(C)(=O)=O)cc2c1C(=O)c1ccc(OCCCN(CCCC)CCCC)cc1 [dronedarone hydrochloride]
death due to stroke, events reported ([2]; 1628 patients with beta-blockers baseline medication, placebo 11 of 1641): 10 events | sudden cardiac death, events reported ([2]; 1628 patients with beta-blockers baseline medication, placebo 25 of 1641): 9 events | hospitalization for congestive heart failure (CHF), events reported ([2]; 1628 patients with beta-blockers baseline medication, placebo 96 of 1641): 85 events | cardiovascular hospitalization or death, events reported [2, 7]: 553 events | death, events reported [2, 7]: 553 events | relative risk of cardiovascular hospitalization or death [2, 8]: 0.777 | relative risk of death [2, 8]: 0.777 | relative risk of death due to stroke [2, 8]: 0.909 | relative risk of hospitalization for CHF [2, 8]: 0.888 | relative risk of sudden cardiac death [2, 8]: 0.362 | decrease of CHF [2, 9]: 12% | decrease of cardiovascular hospitalization or death [2, 9]: 23% | decrease of death [2, 9]: 23% | decrease of death due to stroke [2, 9]: 10% | decrease of sudden cardiac death [2, 9]: 64%

CCCCc1oc2ccc(NS(C)(=O)=O)cc2c1C(=O)c1ccc(OCCCN(CCCC)CCCC)cc1 [dronedarone, 2-n-Butyl-3-[4-(3-di-n-butylaminopropoxy)benzoyl]-5-methylsulphonamidobenzofuran]
increase of steady-state propranolol (80 mg OD) exposure ([1]; male, 7 days): 1.2-1.3 fold | risk of bradycardia ([2]; patients using both dronedarone and beta-blockers except sotalol): no clinically significant increase | reduction in Vcfmean (myocardial contractility) [3]: -0.28 s⁻¹ | AUC(0-t) (clinical; AUC0-24): 983 ng·h/mL | Cmax (clinical; Cmax): 140 ng/mL | tmax (clinical; tmax): 3.63 h | inhibition of CYP2D6 in vivo (CYP2D6): weak inhibitor | Resting diastolic blood pressure, change (healthy male subjects; single dose): −3% | Resting heart rate, change (healthy male subjects; single dose): 2% | Resting systolic blood pressure, change (healthy male subjects; single dose): −5% | diastolic blood pressure during sub-maximal exercise, change from baseline (healthy male subjects; single dose): −2% | heart rate during sub-maximal exercise, change from baseline (healthy male subjects; single dose): −3% | systolic blood pressure during sub-maximal exercise, change from baseline (healthy male subjects; single dose): −2% | PQ interval, change from baseline (healthy male subjects; single oral administration): increase | T-wave amplitude, change from baseline (healthy male subjects; single oral administration): increase | effect on alpha hydroxymetoprolol exposures [4]: without significant effect

COCCc1ccc(OCC(O)CNC(C)C)cc1 (stereo not shown) [metoprolol]
difference in metoprolol exposure (AUC) between poor and extensive CYP2D6 metabolizers [5]: 6 fold | difference in metoprolol exposure (Cmax) between poor and extensive CYP2D6 metabolizers [5]: 3 fold | metoprolol Cmax and AUC0-24h after 8 days of treatment [6]: significantly higher | AUC0-24 ([6]; male): 1541 (1563) ng · h/mL | AUC0-24 ratio estimate (day 13/day 5) and 90% CI ([6]; male): 1.29 [1.08-1.55] | Cmax ([6]; male): 100.6 (86.4) ng/mL | Cmax ratio estimate (day 13/day 5) and 90% CI ([6]; male): 1.34 [1.08-1.66] | increase in AUC0-24 ([6]; male): 1.6 fold | increase in Cmax ([6]; male): 1.8 fold | tmax ([6]; male): 4.0 h

CC(C)NCC(O)COc1cccc2ccccc12 (stereo not shown) [propranolol]
AUC0-12 [1]: 318.75 (178.62) ng · h/ml | AUClast [1]: 360.85 (210.30) ng · h/ml | Cmax [1]: 59.79 (33.77) ng/ml | tmax [1]: 2.19 (0.66) h | magnitude of the PR prolongation (healthy male subjects; after repeated administration, p<0.001): 3.9% | magnitude of the T-wave increase (healthy male subjects; after repeated administration, p=0.001): 28.3% | reduction of HR (healthy male subjects; at steady state): −8.9% | mean change from baseline in QT (healthy male subjects; based on AUC0-8 h, at steady state): 3.6% | mean change from baseline in QTc (healthy male subjects; based on AUC0-8 h, at steady state, p<0.001): −1.9% | QT interval, change from baseline (resting electrocardiogram) (healthy male subjects; repeated daily dosing): 4% | QTc interval, change from baseline (resting electrocardiogram) (healthy male subjects; repeated daily dosing): −2% | T-wave amplitude, change from baseline (resting electrocardiogram) (healthy male subjects; repeated daily dosing): 28% | PQ interval, change from baseline (resting electrocardiogram) (healthy male subjects; repeated once daily dosing): 4% | Resting electrocardiogram heart rate, change compared to baseline (healthy male subjects; repeated once daily dosing): −9% | Resting diastolic blood pressure, change (healthy male subjects; repeated oral administration): −10% | Resting heart rate, change (healthy male subjects; repeated oral administration): −8% | Resting systolic blood pressure, change (healthy male subjects; repeated oral administration): −5% | diastolic blood pressure during sub-maximal exercise, change from baseline (healthy male subjects; repeated oral administration): −2% | heart rate during sub-maximal exercise, change from baseline (healthy male subjects; repeated oral administration): −16% | systolic blood pressure during sub-maximal exercise, change from baseline (healthy male subjects; repeated oral administration): −12% | Resting diastolic blood pressure, change (healthy male subjects; single dose): −4% | Resting heart rate, change (healthy male subjects; single dose): −10% | Resting systolic blood pressure, change (healthy male subjects; single dose): −3% | diastolic blood pressure during sub-maximal exercise, change from baseline (healthy male subjects; single dose): 2% | heart rate during sub-maximal exercise, change from baseline (healthy male subjects; single dose): −17% | systolic blood pressure during sub-maximal exercise, change from baseline (healthy male subjects; single dose): −13%
